Measurements as given in ChEMBL document CHEMBL6153083, “Synthesis, Structural Modification, and Antismall Cell Lung Cancer Activity of 3-Arylisoquinolines with Dual Inhibitory Activity on Topoisomerase I and II” (J Med Chem, 2025).
pIC50: −log10 of the molar value. The source made the active and inactive calls. The calls are words filed in the database; no cut-off is given here.

Tests used:
NCI-H1048 [1] = experiment: Inhibition of clonogenesis in human NCI-H1048 cells incubated for 14 to 21 days by crystal violet staining based analysis; type: functional, cell-based; conditions: dose 0.375-3 µM, time 14-21 day
[2] = Antiproliferative activity against human BEAS-2B cells incubated for 72 hrs; type: toxicity, cell-based
NCI-H1048 [3] = experiment: Induction of apoptosis in human NCI-H1048 cells assessed as decrease in Bcl-2 level incubated for 48 hrs by Western blot analysis; type: functional, cell-based
NCI-H446 [4] = experiment: Antiproliferative activity against human NCI-H446 cells incubated for 72 hrs; type: functional, cell-based; conditions: NCI-H446, 72 h
[5] = Toxicity in BALB/c nude mouse xenografted with human NCI-H446 cells assessed as deleterious effect in lungs at 10 to 20 mg/kg, ip for 21 days by H and E staining based analysis; type: organism-based; conditions: in vivo, 504 h, dose 10-20 mg/kg, time 21 day
NCI-H446 [6] = experiment: Induction of apoptosis in human NCI-H446 cells assessed as chromatin condensation at 1 to 8 uM incubated for 48 hrs by Geimsa staining based analysis; type: functional, cell-based; conditions: dose 1-8 µM
NCI-H1048 [7] = experiment: Induction of apoptosis in human NCI-H1048 cells assessed as reduction in cell viability incubated for 48 hrs by Geimsa staining based analysis; type: functional
[8] = Acute toxicity in Kunming mouse assessed as lethal dose; conditions: in vivo
NCI-H1048 [9] = experiment: Induction of apoptosis in human NCI-H1048 cells assessed as increase in cleaved caspase-3 level incubated for 48 hrs by Western blot analysis; type: functional, cell-based
[10] = Antiproliferative activity against human L02 cells incubated for 72 hrs; type: toxicity, cell-based
Homo sapiens = species: Homo sapiens; experiment: Inhibition of Topo II (unknown origin) relaxation activity using pBR322 plasmid DNA as substrate at 25 to 100 uM incubated for 30 mins in presence of ATP; conditions: dose 25-100 µM
NCI-H1048 [11] = experiment: Inhibition of cell migration in human NCI-H1048 cells incubated for 24 hrs by wound-healing assay; type: functional, cell-based; conditions: dose 0.375-3 µM
[12] = Antiproliferative activity against human NCI-H196 cells incubated for 72 hrs; type: functional, cell-based; conditions: NCI-H196, 72 h
NCI-H446 [13] = experiment: Antitumor activity against human NCI-H446 cells xenografted in BALB/c nude mouse assessed as decrease in tumor volume at 10 to 20 mg/kg, ip for 21 days; type: functional, organism-based; conditions: dose 10-20 mg/kg, time 21.0 day
[14] = Toxicity in BALB/c nude mouse xenografted with human NCI-H446 cells assessed as body weight change at 10 to 20 mg/kg, ip for 21 days; type: organism-based; conditions: in vivo, 504 h, dose 10-20 mg/kg, time 21 day
[15] = MRT (0 to infinity) in Sprague-Dawley rat at 10 mg/kg, ip measured after 24 hrs by LC-MS/MS analysis; type: ADME, organism-based; conditions: in vivo
[16] = Acute toxicity in Kunming mouse assessed as change in body weight at 300 mg/kg, ip measured for 10 days; type: organism-based; conditions: in vivo, 240 h, time 10 day
[17] = MRT (0 to t) in Sprague-Dawley rat at 10 mg/kg, ip measured after 24 hrs by LC-MS/MS analysis; type: ADME, organism-based; conditions: in vivo
[18] = Toxicity in BALB/c nude mouse xenografted with human NCI-H446 cells assessed as deleterious effect in kidney at 10 to 20 mg/kg, ip for 21 days by H and E staining based analysis; type: organism-based; conditions: in vivo, 504 h, dose 10-20 mg/kg, time 21 day
[19] = target: T1, DNA topoisomerase 1 (Homo sapiens) (UniProt P11387); experiment: Inhibition of Topo I (unknown origin) relaxation activity using pBR322 plasmid DNA as substrate at 25 to 100 uM incubated for 30 mins; conditions: dose 25-100 µM
T1 sequence (whole entry): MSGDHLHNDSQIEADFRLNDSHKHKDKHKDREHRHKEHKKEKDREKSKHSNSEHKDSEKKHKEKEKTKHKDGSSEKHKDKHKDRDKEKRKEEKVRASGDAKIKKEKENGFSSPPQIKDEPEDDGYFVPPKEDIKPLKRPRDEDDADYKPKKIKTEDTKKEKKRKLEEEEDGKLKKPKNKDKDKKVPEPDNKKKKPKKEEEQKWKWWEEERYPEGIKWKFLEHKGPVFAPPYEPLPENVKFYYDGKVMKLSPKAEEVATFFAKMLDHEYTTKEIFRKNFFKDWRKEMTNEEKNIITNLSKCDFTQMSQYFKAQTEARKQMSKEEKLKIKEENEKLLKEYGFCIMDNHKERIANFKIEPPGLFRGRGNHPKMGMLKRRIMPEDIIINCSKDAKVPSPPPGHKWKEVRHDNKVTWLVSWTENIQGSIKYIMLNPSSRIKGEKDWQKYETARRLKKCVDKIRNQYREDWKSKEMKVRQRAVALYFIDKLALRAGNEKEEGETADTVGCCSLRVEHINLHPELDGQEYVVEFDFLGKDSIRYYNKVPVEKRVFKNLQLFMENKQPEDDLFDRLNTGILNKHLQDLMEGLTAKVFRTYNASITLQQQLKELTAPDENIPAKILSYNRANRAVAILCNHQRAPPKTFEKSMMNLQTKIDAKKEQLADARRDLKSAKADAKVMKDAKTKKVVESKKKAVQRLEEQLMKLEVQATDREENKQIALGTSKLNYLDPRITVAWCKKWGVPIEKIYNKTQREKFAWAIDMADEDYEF

[20] = Half life in Sprague-Dawley rat at 10 mg/kg, ip measured after 24 hrs by LC-MS/MS analysis; type: ADME, organism-based; conditions: in vivo
[21] = Acute toxicity in Kunming mouse assessed as animal death at 400 mg/kg, ip; type: organism-based; conditions: in vivo
NCI-H446 [22] = experiment: Inhibition of cell migration in human NCI-H446 cells incubated for 24 hrs by transwell assay; type: functional, cell-based; conditions: dose 0.375-3 µM
[23] = AUC (0 to t) in Sprague-Dawley rat at 10 mg/kg, ip measured after 24 hrs by LC-MS/MS analysis; type: ADME, organism-based; conditions: in vivo
NCI-H1048 [24] = experiment: Inhibition of cell invasion in human NCI-H1048 cells incubated for 24 hrs by transwell assay; type: functional, cell-based
NCI-H446 [25] = experiment: Induction of apoptosis in human NCI-H446 cells assessed as increase in Bax level incubated for 48 hrs by Western blot analysis; type: functional, cell-based; conditions: dose 1-8 µM
NCI-H82 = experiment: Antiproliferative activity against human NCI-H82 cells incubated for 72 hrs; type: functional, cell-based; conditions: NCI-H82, 72 h
NCI-H446 [26] = experiment: Induction of apoptosis in human NCI-H446 cells assessed as formation of membrane blebbing at 1 to 8 uM incubated for 48 hrs by Geimsa staining based analysis; type: functional, cell-based; conditions: dose 1-8 µM
NCI-H446 [27] = experiment: Induction of apoptosis in human NCI-H446 cells assessed as increase in cleaved caspase-3 level incubated for 48 hrs by Western blot analysis; type: functional, cell-based; conditions: dose 1-8 µM
[28] = Tmax in Sprague-Dawley rat at 10 mg/kg, ip measured after 24 hrs by LC-MS/MS analysis; type: ADME, organism-based; conditions: in vivo
NCI-H209 = experiment: Antiproliferative activity against human NCI-H209 cells incubated for 72 hrs; type: functional, cell-based; conditions: NCI-H209, 72 h
NCI-H1048 [29] = experiment: Antiproliferative activity against human NCI-H1048 cells incubated for 72 hrs; type: functional, cell-based; conditions: NCI-H1048, 72 h
NCI-H446 [30] = experiment: Induction of mitochondrial dysfunction in human NCI-H446 cells assessed as increase in ROS level at 1 to 8 uM incubated for 48 hrs by DCFH-DA staining based flow cytometry; type: functional, cell-based; conditions: dose 1-8 µM
NCI-H446 [31] = experiment: Inhibition of cell proliferation in human NCI-H446 cells incubated for 24 hrs by EdU incorporation assay; type: functional, cell-based; conditions: dose 0.375-3 µM

Row | Structure (SMILES) | inhibition (NCI-H1048 [1]) | IC50 at 72 h [2] [µM] | Activity (NCI-H1048 [3]) | pIC50 (NCI-H446 [4]) | Activity [5] | Activity (NCI-H446 [6]) | Activity (NCI-H1048 [7]) | LD50 [8] [mg/kg] | Activity (NCI-H1048 [9]) | IC50 at 72 h [10] [µM] | inhibition (Homo sapiens) | inhibition (NCI-H1048 [11]) | pIC50 [12] | Activity (NCI-H446 [13]) | Activity [14] | MRT inf [15] [h] | Activity [16] | MRT last at 24 h [17] [h] | Activity [18] | inhibition [19] | other results
1 | CC1CC(C)CN(Cc2cc3c(cc2-c2cc4ccc5c(c4cn2)OCO5)OCO3)C1 (stereo not drawn) | Dose-dependent-effect; Potent Inhibitory Effect At Equivalent Efficacy As Etoposide | 27.5 | Dose-dependent-effect | 5.89 | Non-toxic | Active | Dose-dependent-effect | 300 | Dose-dependent-effect | 29.1 | Active; Exhibited Stronger Activity Against Topo Ii Compared To Topo I | Dose-dependent-effect; Exhibited Superior Inhibitory Effect Compared To Etoposide At Same Concentration | 5.02 | Active; Exhibited Markedly Slow Growth Rate | Non-toxic | 5.19 | Non-toxic | 5.02 | Non-toxic | Active | half-life [20]: 3.38 h; Activity [21]: Toxic; inhibition (NCI-H446 [22]): Dose-dependent-effect; Displayed Stronger Inhibitory Effect Than Etoposide; AUC(0-t) at 24 h [23]: 736 ng·h/mL; inhibition (NCI-H1048 [24]): Dose-dependent-effect; Displayed Stronger Inhibitory Effect Than Etoposide; Activity (NCI-H446 [25]): Dose-dependent-effect; pIC50 (NCI-H82): 5.65; Activity (NCI-H446 [26]): Active; Activity (NCI-H446 [27]): Dose-dependent-effect; Tmax [28]: 0.25 h; pIC50 (NCI-H209): 4.43; pIC50 (NCI-H1048 [29]): 5.85; Activity (NCI-H446 [30]): Active; inhibition (NCI-H446 [31]): Dose-dependent-effect; Exhibited Similar Inhibitory Effect To That Of Etoposide At Same Concentration
2 | CCC1CCCC(C)N1Cc1cc2c(cc1-c1cc3ccc4c(c3cn1)OCO4)OCO2 (stereo not drawn) | Dose-dependent-effect | > 100 | Dose-dependent-effect | 5.88 | Non-toxic | Active | Dose-dependent-effect | 300 | Dose-dependent-effect | 26.1 | Active; Exhibited Stronger Activity Against Topo Ii Compared To Topo I | Dose-dependent-effect | 4.86 | Active; Exhibited Markedly Slow Growth Rate | Non-toxic | 6.14 | Non-toxic | 5.42 | Non-toxic | Active | half-life [20]: 4.86 h; Activity [21]: Toxic; inhibition (NCI-H446 [22]): Dose-dependent-effect; AUC(0-t) at 24 h [23]: 1180 ng·h/mL; inhibition (NCI-H1048 [24]): Dose-dependent-effect; Activity (NCI-H446 [25]): Dose-dependent-effect; pIC50 (NCI-H82): 5.62; Activity (NCI-H446 [26]): Active; Activity (NCI-H446 [27]): Dose-dependent-effect; Tmax [28]: 0.25 h; pIC50 (NCI-H209): 4.94; pIC50 (NCI-H1048 [29]): 5.61; Activity (NCI-H446 [30]): Active; inhibition (NCI-H446 [31]): Dose-dependent-effect; Exhibited Similar Inhibitory Effect To That Of Etoposide At Same Concentration
